Experimental data as given in patent US12533384B2, “Lactobacillus reuteri CCFM1132 capable of relieving hyperuricemia and application thereof” (Jiangnan University, priority 2020, dated 2026).

Tested on: mice with hyperuricemia
Test: Serum creatinine of mice with hyperuricemia (Mindray BS480 biochemical analyzer)
Type: in vivo, KunMing mice
Conditions: 5 mg/kg BW by intragastric administration
Method: 24 healthy male KunMing mice with the weight of 24 to 32 g were randomly divided into four groups after a week of acclimatization, namely a control group, a hyperuricemia model group, an L. reuteri CCFM1132 intervention group and an allopurinol intervention group (allopurinol). Except the control group, 500 mg/kg BW hypoxanthine was given to the other groups every day by intragastric administration, and 200 mg/kg BW oteracil potassium was intraperitoneally injected to the other groups 1 h later. At 1 h before processing with oteracil potassium, 100 g/L skim milk was given to the control group and the hyperuricemia model group, L. reuteri CCFM1132 with the concentration of 1.0×10^9 CFU/mouse was given to the L. reuteri CCFM1132 intervention group, and 5 mg/kg BW allopurinol was given to the allopurinol group.
At the end of the experiment, fresh feces of the mice was collected and frozen at −80° C. After the experiment was finished, the mice were subjected to fasting but free for drinking water for 12 h. 0.1 mL/10 g of […] pentobarbital sodium solution was intraperitoneally injected for anesthetization. […] The serum uric acid levels were determined by using a kit method.
Experimental animal groups and processing methods are the same as those of Example 3, and serum creatinine was detected by using a Mindray BS480 biochemical analyzer according to a kit method.

Q: Which “serum creatinine reducing effect” value does the source give for Oc1ncnc2[nH]ncc12 [allopurinol] here?
A: does not have the reducing effect
